This note sets out measurements from the supplement of paper PMC10307832.

Holding throughout (assay): relative viability (nuclei count vs DMSO), 5 days (fraction); higher = more cells survive
Compound in assay [1]: O[C@H]1CC[C@H](Nc2ncc3nc(Nc4c(F)cc(F)cc4F)n([C@H]4CCOC4)c3n2)CC1 [Tanzisertib] + CC(=O)c1c(C)c2cnc(Nc3ccc(N4CCNCC4)cn3)nc2n(C2CCCC2)c1=O [Palbociclib] (partner 0.5 µM)
Put shortly:
(§1)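 Five library-drug doses in √10 steps were combined with a fixed anchor-drug dose, or a single drug was given alone, by pin tool to lung cancer cell lines in 1536-well plates the day after seeding. Nuclei were stained and counted after 5 days. Relative viability is the nuclei count in treated wells over that in vehicle wells, taken as the median of duplicate plates.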

Compound in the assay “Tanzisertib + Pictilisib”: O[C@H]1CC[C@H](Nc2ncc3nc(Nc4c(F)cc(F)cc4F)n([C@H]4CCOC4)c3n2)CC1 [Tanzisertib] + CS(=O)(=O)N1CCN(Cc2cc3nc(-c4cccc5[nH]ncc45)nc(N4CCOCC4)c3s2)CC1 [Pictilisib] (partner 1 µM)
Put shortly:
as §1

Compound in the assay “Tanzisertib + Foretinib”: O[C@H]1CC[C@H](Nc2ncc3nc(Nc4c(F)cc(F)cc4F)n([C@H]4CCOC4)c3n2)CC1 [Tanzisertib] + COc1cc2c(Oc3ccc(NC(=O)C4(C(=O)Nc5ccc(F)cc5)CC4)cc3F)ccnc2cc1OCCCN1CCOCC1 [Foretinib] (partner 0.25 µM)
Put shortly:
as §1

Compound in assay [2]: C[C@@H](N)c1ccc(C(=O)Nc2ccnc3[nH]ccc23)cc1 + COc1cccc2cc(-c3nc([C@H]4CC[C@H](C(=O)O)CC4)n4ncnc(N)c34)[nH]c12 [OSI-027] (partner 0.5 µM)
Put shortly: as §1

With HCC-78, the relative viability was 0.405 in assay [1] (first compound 0.08 µM); 0.474 in assay [1] (first compound 0.253 µM); 0.488 in assay [1] (first compound 0.8 µM); 0.514 in assay [1] (first compound 2.53 µM); 0.472 in assay [1] (first compound 8 µM); 0.215 with Tanzisertib + Pictilisib (first compound 0.08 µM). Further, the relative viability with Tanzisertib + Pictilisib (first compound 0.253 µM) was found to be 0.175; with Tanzisertib + Pictilisib (first compound 0.8 µM), 0.23; with Tanzisertib + Pictilisib (first compound 2.53 µM), 0.219; with Tanzisertib + Pictilisib (first compound 8 µM), 0.192; in the assay with Tanzisertib + Foretinib (first compound 0.08 µM), 0.545; in the assay with Tanzisertib + Foretinib (first compound 0.253 µM), 0.614. Moreover, the relative viability is 0.584 in the assay with Tanzisertib + Foretinib (first compound 0.8 µM); 0.583 with Tanzisertib + Foretinib (first compound 2.53 µM); 0.585 with Tanzisertib + Foretinib (first compound 8 µM); 0.54 in assay [2] (first compound 0.04 µM); 0.389 in assay [2] (first compound 0.1265 µM); 0.476 in assay [2] (first compound 0.4 µM). For the same cell line, the relative viability in assay [2] (first compound 1.265 µM) is 0.388; in assay [2] (first compound 4 µM) it was 0.544.
As for HCC-366, the relative viability in assay [1] (first compound 0.253 µM) was 0.395; in assay [1] (first compound 0.8 µM), 0.424; in assay [1] (first compound 2.53 µM) it was 0.368; in assay [1] (first compound 8 µM), 0.384; with Tanzisertib + Pictilisib (first compound 0.08 µM), 0.138; with Tanzisertib + Pictilisib (first compound 0.253 µM), 0.15. Moreover, the relative viability with Tanzisertib + Pictilisib (first compound 0.8 µM) stood at 0.134; with Tanzisertib + Pictilisib (first compound 2.53 µM), 0.128; in the assay with Tanzisertib + Pictilisib (first compound 8 µM) it was 0.114; with Tanzisertib + Foretinib (first compound 0.08 µM), 0.917; with Tanzisertib + Foretinib (first compound 0.253 µM), 0.918; with Tanzisertib + Foretinib (first compound 0.8 µM) it was 0.922. Further, the relative viability in the assay with Tanzisertib + Foretinib (first compound 2.53 µM) amounted to 0.975; in the assay with Tanzisertib + Foretinib (first compound 8 µM), 0.917; in assay [2] (first compound 0.04 µM), 0.787; in assay [2] (first compound 0.1265 µM) it was 0.847; in assay [2] (first compound 0.4 µM) it was 0.993; in assay [2] (first compound 4 µM), 1.08.
HCC-827: the relative viability was 0.533 in assay [1] (first compound 0.08 µM); 0.468 in assay [1] (first compound 0.253 µM); 0.475 in assay [1] (first compound 0.8 µM); 0.429 in assay [1] (first compound 2.53 µM); 0.24 in assay [1] (first compound 8 µM); 0.876 in the assay with Tanzisertib + Pictilisib (first compound 0.08 µM). Also, the relative viability with Tanzisertib + Pictilisib (first compound 0.253 µM) worked out at 0.937; with Tanzisertib + Pictilisib (first compound 0.8 µM) it was 1.14; with Tanzisertib + Pictilisib (first compound 2.53 µM) it was 0.885; in the assay with Tanzisertib + Pictilisib (first compound 8 µM), 0.536; with Tanzisertib + Foretinib (first compound 0.08 µM), 1.13; with Tanzisertib + Foretinib (first compound 0.253 µM), 1.1. The relative viability stood at 1.07 with Tanzisertib + Foretinib (first compound 0.8 µM); 0.814 in the assay with Tanzisertib + Foretinib (first compound 2.53 µM); 0.389 with Tanzisertib + Foretinib (first compound 8 µM); 0.849 in assay [2] (first compound 0.04 µM); 0.873 in assay [2] (first compound 0.1265 µM); 0.844 in assay [2] (first compound 0.4 µM). The relative viability came to 0.922 in assay [2] (first compound 1.265 µM) and 0.764 in assay [2] (first compound 4 µM).
Regarding HOP-62, the relative viability in assay [1] (first compound 0.08 µM) was found to be 0.411; in assay [1] (first compound 0.253 µM) it was 0.451; in assay [1] (first compound 0.8 µM), 0.464; in assay [1] (first compound 2.53 µM), 0.491; in assay [1] (first compound 8 µM), 0.525; in the assay with Tanzisertib + Pictilisib (first compound 0.08 µM), 0.851. Also, the relative viability with Tanzisertib + Pictilisib (first compound 0.253 µM) was 0.874; with Tanzisertib + Pictilisib (first compound 0.8 µM) it was 0.856; with Tanzisertib + Pictilisib (first compound 2.53 µM), 0.871; with Tanzisertib + Pictilisib (first compound 8 µM), 0.341; in the assay with Tanzisertib + Foretinib (first compound 0.08 µM) it was 0.99; with Tanzisertib + Foretinib (first compound 0.253 µM) it was 1.07. Also, the relative viability with Tanzisertib + Foretinib (first compound 0.8 µM) worked out at 0.986; with Tanzisertib + Foretinib (first compound 2.53 µM), 1.22; with Tanzisertib + Foretinib (first compound 8 µM), 1.32; in assay [2] (first compound 0.04 µM) it was 0.819; in assay [2] (first compound 0.1265 µM) it was 0.76; in assay [2] (first compound 0.4 µM) it was 0.852. Moreover, the relative viability worked out at 0.745 in assay [2] (first compound 1.265 µM) and 0.821 in assay [2] (first compound 4 µM).
Turning to IA-LM, the relative viability stood at 0.375 with Tanzisertib + Pictilisib (first compound 0.08 µM); 0.335 with Tanzisertib + Pictilisib (first compound 0.253 µM); 0.339 with Tanzisertib + Pictilisib (first compound 0.8 µM); 0.255 in the assay with Tanzisertib + Pictilisib (first compound 2.53 µM); 0.362 in the assay with Tanzisertib + Pictilisib (first compound 8 µM); 1.02 with Tanzisertib + Foretinib (first compound 0.08 µM). For the same cell line, the relative viability with Tanzisertib + Foretinib (first compound 0.253 µM) was 1.28; in the assay with Tanzisertib + Foretinib (first compound 0.8 µM), 1.04; with Tanzisertib + Foretinib (first compound 2.53 µM), 1.28; in the assay with Tanzisertib + Foretinib (first compound 8 µM) it was 1.09.
Take LC-2-ad: the relative viability in assay [1] (first compound 0.08 µM) is 0.484; in assay [1] (first compound 0.253 µM) it was 0.548; in assay [1] (first compound 0.8 µM) it was 0.471; in assay [1] (first compound 2.53 µM), 0.441; in assay [1] (first compound 8 µM), 0.502; with Tanzisertib + Pictilisib (first compound 0.08 µM), 0.506. Moreover, the relative viability with Tanzisertib + Pictilisib (first compound 0.253 µM) was 0.426; in the assay with Tanzisertib + Pictilisib (first compound 0.8 µM) it was 0.458; in the assay with Tanzisertib + Pictilisib (first compound 2.53 µM) it was 0.0954; in the assay with Tanzisertib + Pictilisib (first compound 8 µM), 0.359; with Tanzisertib + Foretinib (first compound 0.08 µM) it was 0.924; in the assay with Tanzisertib + Foretinib (first compound 0.253 µM), 0.913. Further, the relative viability in the assay with Tanzisertib + Foretinib (first compound 0.8 µM) was found to be 0.908; in the assay with Tanzisertib + Foretinib (first compound 2.53 µM) it was 0.877; with Tanzisertib + Foretinib (first compound 8 µM), 0.884; in assay [2] (first compound 0.04 µM), 0.763; in assay [2] (first compound 0.1265 µM) it was 0.893; in assay [2] (first compound 0.4 µM), 0.858. The relative viability in assay [2] (first compound 4 µM) was found to be 0.625.
Regarding LCLC-97TM1, the relative viability is 0.222 in assay [1] (first compound 0.08 µM); 0.243 in assay [1] (first compound 0.253 µM); 0.215 in assay [1] (first compound 0.8 µM); 0.204 in assay [1] (first compound 2.53 µM); 0.229 in assay [1] (first compound 8 µM); 0.16 with Tanzisertib + Pictilisib (first compound 0.253 µM). In addition, the relative viability with Tanzisertib + Pictilisib (first compound 0.8 µM) was 0.176; with Tanzisertib + Pictilisib (first compound 2.53 µM), 0.159; in the assay with Tanzisertib + Pictilisib (first compound 8 µM), 0.164; with Tanzisertib + Foretinib (first compound 0.08 µM), 0.928; with Tanzisertib + Foretinib (first compound 0.253 µM) it was 0.945; in the assay with Tanzisertib + Foretinib (first compound 0.8 µM), 0.89. The relative viability with Tanzisertib + Foretinib (first compound 2.53 µM) amounted to 0.854; with Tanzisertib + Foretinib (first compound 8 µM), 0.946; in assay [2] (first compound 0.04 µM), 0.69; in assay [2] (first compound 0.1265 µM), 0.587; in assay [2] (first compound 0.4 µM), 0.625; in assay [2] (first compound 1.265 µM), 0.384. Also, the relative viability in assay [2] (first compound 4 µM) came out at 0.701.
With LCLC-103H, the relative viability is 0.519 in assay [1] (first compound 0.08 µM); 0.466 in assay [1] (first compound 0.253 µM); 0.486 in assay [1] (first compound 0.8 µM); 0.456 in assay [1] (first compound 2.53 µM); 0.465 in assay [1] (first compound 8 µM); 0.698 with Tanzisertib + Pictilisib (first compound 0.08 µM). Also, the relative viability was found to be 0.642 with Tanzisertib + Pictilisib (first compound 0.253 µM); 0.648 with Tanzisertib + Pictilisib (first compound 0.8 µM); 0.616 in the assay with Tanzisertib + Pictilisib (first compound 2.53 µM); 0.608 with Tanzisertib + Pictilisib (first compound 8 µM); 0.79 in the assay with Tanzisertib + Foretinib (first compound 0.08 µM); 0.784 with Tanzisertib + Foretinib (first compound 0.253 µM). In addition, the relative viability came out at 0.806 with Tanzisertib + Foretinib (first compound 0.8 µM); 0.71 with Tanzisertib + Foretinib (first compound 2.53 µM); 0.765 with Tanzisertib + Foretinib (first compound 8 µM); 0.416 in assay [2] (first compound 0.04 µM); 0.453 in assay [2] (first compound 0.1265 µM); 0.438 in assay [2] (first compound 0.4 µM). In addition, the relative viability was determined as 0.463 in assay [2] (first compound 1.265 µM) and 0.432 in assay [2] (first compound 4 µM).
